“And” between values parts separate entries of the source, which are not always exact repeats. Equal entries are not always repeated.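 Assay format: 96-well plates, 48-hour exposure. At the GI50, growth is halved. TGI: concentration producing complete growth inhibition.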
Experiments:
Assay in all cases: NCI tumour cell line growth inhibition, 48 h
SK-MEL-5 melanoma = tested on: SK-MEL-5 melanoma
M14 melanoma = tested on: M14 melanoma
K-562 leukemia = tested on: K-562 leukemia
LOX IMVI melanoma = tested on: LOX IMVI melanoma
NCI-H23 lung = tested on: NCI-H23 lung
MALME-3M melanoma = tested on: MALME-3M melanoma
SF-295 CNS = tested on: SF-295 CNS
NCI-H460 lung = tested on: NCI-H460 lung
OVCAR-3 ovarian = tested on: OVCAR-3 ovarian
UO-31 renal = tested on: UO-31 renal

Structure (SMILES) | TGI (SK-MEL-5 melanoma) | TGI (M14 melanoma) | TGI (K-562 leukemia) | TGI (LOX IMVI melanoma) | TGI (NCI-H23 lung) | TGI (MALME-3M melanoma) | TGI (SF-295 CNS) | TGI (NCI-H460 lung) | TGI (OVCAR-3 ovarian) | TGI (UO-31 renal) | GI50 (SK-MEL-5 melanoma) | GI50 (K-562 leukemia) | GI50 (LOX IMVI melanoma) | GI50 (NCI-H23 lung) | GI50 (MALME-3M melanoma) | GI50 (SF-295 CNS) | GI50 (NCI-H460 lung) | GI50 (OVCAR-3 ovarian) | GI50 (UO-31 renal)
CCOc1nc(-c2ccccc2)cc(-c2ccc(N3CCOCC3)cc2)c1C#N | > 100 µM | > 100 µM | > 100 µM | > 100 µM | > 100 µM | > 100 µM | > 100 µM | > 100 µM | > 100 µM | > 100 µM |  |  |  |  |  |  |  |  | 
O=[Se](=O)c1ccccc1.O=[Se](=O)c1ccccc1.[Cu] | 34.9 µM |  | 47.4 µM | 19.5 µM | 30.1 µM | 31.7 µM | 29.8 µM | 20 µM | 32.7 µM | 32.5 µM | 19 µM | 13.4 µM | 7.65 µM | 13.5 µM | 16.8 µM | 16 µM | 8 µM | 13.7 µM | 18 µM
COc1ccc(N=N/C(=N/NC(=O)c2ccccc2)c2ccc(N(CCC#N)CCC#N)cc2C)cc1 | > 100 µM | > 100 µM | > 100 µM |  | > 100 µM | > 100 µM | > 100 µM | > 100 µM | > 100 µM | > 100 µM |  |  |  |  |  |  |  |  | 
Oc1ccc(SCc2cc(O)c(O)c(O)c2)cc1 | 40.7 µM | 33.1 µM | > 100 µM | > 100 µM | > 100 µM | > 100 µM | 29.8 µM | 36.7 µM | > 100 µM | > 100 µM |  |  |  |  |  |  |  |  | 
O=C1NC2(CCCCC2)C2CCCCCC12 (stereo unspecified) |  | > 100 µM | > 100 µM | > 100 µM | > 100 µM | > 100 µM | > 100 µM | > 100 µM | > 100 µM | > 100 µM |  |  |  |  |  |  |  |  | 
CCOC(=O)CNC(=O)C(C)NC(=O)C(NC(=O)CC(c1ncc[nH]1)c1ncc[nH]1)C(C)CC (stereo unspecified) |  | > 100 µM | > 100 µM | > 100 µM | > 100 µM | > 100 µM | > 100 µM | > 100 µM | > 100 µM | > 100 µM |  |  |  |  |  |  |  |  | 
COc1cccc(N(CN2CC=CC2=O)C(C)=O)c1 | > 100 µM | > 100 µM | > 100 µM | > 100 µM | > 100 µM | > 100 µM | > 100 µM | > 100 µM | > 100 µM | > 100 µM |  |  |  |  |  |  |  |  | 
Cc1cc(-c2nc3ccccc3s2)ccc1NC(=O)[C@H](C)N | 26.1 µM | 19.2 µM | 23.2 µM | > 100 µM | 33.9 µM | 51.1 µM | 29.3 µM | 25.6 µM | 24.7 µM | 19.1 µM |  |  |  |  |  |  |  |  | 
CSC1=C(C#N)C(=O)N(c2ccc(C)cc2)C(=S)C1C#N (stereo unspecified) | > 100 µM | > 100 µM | > 100 µM | > 100 µM |  | > 100 µM | > 100 µM | > 100 µM |  |  |  |  |  |  |  |  |  |  | 
CCc1ccc2[nH]c(O)c(-c3[nH]c4ccccc4c3N=O)c2c1 | 13.6 µM | 25.3 µM | 97.1 µM | 26.7 µM | 19 µM | 21.6 µM | 20.5 µM | 21 µM | 14.4 µM | 12 µM |  |  |  |  |  |  |  |  | 
CC[C@H](C)[C@H]1NC(=O)[C@@H](NC(=O)[C@@H](CC(C)C)N(C)CC2CCCN2C(=O)C(C)=O)[C@@H](C)OC(=O)[C@H](Cc2ccc(OC)cc2)N(C)C(=O)C2CCCN2C(=O)[C@H](CC(C)C)NC(=O)[C@@H](C)C(=O)[C@H](C(C)C)OC(=O)C[C@@H]1O (stereo partly specified) | 0.00843 µM | 0.00972 µM | 0.0158 µM | 0.00861 µM | 0.0591 µM | 0.0474 µM | 0.042 µM | 0.00812 µM | 0.0151 µM | 0.0862 µM |  |  |  |  |  |  |  |  | 
Cc1cccc(C2=NC(C)(C)C(C)(C)N=C2c2cccc(C)n2)n1 | > 100 µM | > 100 µM | > 100 µM | > 100 µM | > 100 µM | > 100 µM | > 100 µM | > 100 µM | > 100 µM | > 100 µM |  |  |  |  |  |  |  |  | 
COC(=O)n1c(=O)n(-c2ccccc2)c(=O)n1C(=O)OC | > 100 µM | > 100 µM | > 100 µM | > 100 µM | > 100 µM | > 100 µM |  | > 100 µM | > 100 µM | > 100 µM |  |  |  |  |  |  |  |  | 
O=C1Nc2cc([N+](=O)[O-])ccc2NC1/C(=N\Nc1ccccc1)C(O)c1cccc([N+](=O)[O-])c1 (stereo unspecified) | 45.1 µM | > 100 µM | > 100 µM | > 100 µM | > 100 µM | > 100 µM | > 100 µM | > 100 µM | > 100 µM | > 100 µM |  |  |  |  |  |  |  |  | 
NC(=O)C#CC(N)=O | 28.2 µM and > 100 µM | 37.5 µM | 15.1 µM and 96.6 µM and 24.3 µM | 80.5 µM and 30.4 µM | 238 µM and 207 µM and > 100 µM | 19.7 µM and 18.1 µM | 26.2 µM and > 31.6 µM | 146 µM and 126 µM and > 100 µM | 90.2 µM and 66.5 µM and > 100 µM | 63.4 µM and > 81.1 µM | 15 µM and 54.6 µM |  |  | 46.4 µM | 5.74 µM |  | 38.3 µM and 32.8 µM and > 100 µM | 26.5 µM and 22.8 µM and > 100 µM | 

Reference: PubChem BioAssay (NCI)
